Reference: patent US4258180A, “C6-Modified cyclodextrin sulfate salts as complement inhibitors” (American Cyanamid Company, priority 1979, dated 1981)
Where a name gives a salt, the structure may show the parent alone.

Tests used:
complement system = conditions: British Journal of Experimental Pathology, 33, 327-339 (1952); cited from earlier work
[1] = system: hereditary angio-neurotic edema; conditions: literature reports; cited from earlier work
shunt pathway = test: Test Code 036 (C-Shunt inhibitor), lysis of fragile human erythrocytes in autologous serum, cobra venom factor; assay type: biochemical; conditions: serial dilution assay, twofold dilutions; higher well number indicates higher activity; N = Negative
Text: (§1) An active inhibitor protects C2 from C1 and C4; (ii) Test Code 035 (C3-C9 inhibitor)--This test determines the ability of the late components of human complement (C3-C9) to lyse EAC 142 in the presence of appropriate dilutions of the test compound. An active inhibitor protects EAC 142 from lysis by human C3-C9; (iii) Test Code 036 (C-Shunt inhibitor)--In this test human erythrocytes rendered fragile are lysed in autologous serum via the shunt pathway activated by cobra venom factor in the presence of appropriate dilutions of the test compound. Inhibition of the shunt pathway results in failure of lysis; (iv) Forssman Vasculitis Test--Here, the well known complement dependent lesion, Forssman Vasculitis, is produced in guinea pigs by intradermal injection of rabbit anti-Forssman antiserum. The lesion is measured in terms of diameter, edema and hemorrhage and the extent to which a combined index of these is inhibited by prior intraperitoneal injection of the test compound at 200 mg/kg is then reported, unless otherwise stated; (v) Forssman Shock Test--Lethal shock is produced in guinea pigs by an i.v. injection of anti-Forssman antiserum and the harmonic mean death time of treated guinea pigs is compared with that of simultaneous controls; (vi) Complement Level Reduction Test--In this test, the above dosed guinea pigs, or others, are bled for serum and the complement level is determined in undiluted serum by the capillary tube method of U.S. Pat. No. 3,876,376 and compared to undosed control guinea pigs; and (vii) Cap 50 Test--Here, appropriate amounts of the test compound are added to a pool of guinea pig serum in vitro, after which the undiluted serum capillary tube assay referred to above is run. The concentration of compound inhibiting 50% is reported.

[2] = system: late components of human complement (C3-C9); test: Test Code 035 (C3-C9 inhibitor), lysis of EAC 142; assay type: biochemical; conditions: serial dilution assay, twofold dilutions; higher well number indicates higher activity; N = Negative
Text: as §1

activated human C1 = activated human C1 (Homo sapiens, UniProt P09871); test: Test Code 026 (C1 inhibitor); assay type: biochemical; conditions: serial dilution assay, twofold dilutions; higher well number indicates higher activity
Text: as §1

Row | Compound | anticomplementary effect (complement system) | treatment of hereditary angio-neurotic edema [1] | further results
1 | Nc1ccc2cc(S(=O)(=O)O)cc(O)c2c1N=Nc1ccc(NC(=O)Nc2ccc(N=Nc3c(N)ccc4cc(S(=O)(=O)O)cc(O)c34)c(S(=O)(=O)O)c2)cc1S(=O)(=O)O [chlorazol fast pink, 3,3'-ureylenebis-[6-(2-amino-8-hydroxy-6-sulfo-1-naphthylazo)]benzenesulfonic acid, tetrasodium salt] | anticomplementary effect |  | 
2 | NC[C@H]1CC[C@H](C(=O)O)CC1 [tranexamic acid] |  | used with success | 
3 | heparin | anticomplementary effect |  | 
4 | NCCCCCC(=O)O [epsilon-aminocaproic acid] |  | used with success | 
5 | C[C@H]1O[C@@H]2O[C@H]3[C@H](OS(=O)(=O)O)[C@@H](OS(=O)(=O)O)[C@@H](O[C@H]4[C@H](OS(=O)(=O)O)[C@@H](OS(=O)(=O)O)[C@@H](O[C@H]5[C@H](OS(=O)(=O)O)[C@@H](OS(=O)(=O)O)[C@@H](O[C@H]6[C@H](OS(=O)(=O)O)[C@@H](OS(=O)(=O)O)[C@@H](O[C@H]7[C@H](OS(=O)(=O)O)[C@@H](OS(=O)(=O)O)[C@@H](O[C@H]8[C@H](OS(=O)(=O)O)[C@@H](OS(=O)(=O)O)[C@@H](O[C@H]1[C@H](OS(=O)(=O)O)[C@H]2OS(=O)(=O)O)O[C@@H]8C)O[C@@H]7C)O[C@@H]6C)O[C@@H]5C)O[C@@H]4C)O[C@@H]3C [β-Cyclo[6-deoxy]dextrin poly(H-sulfate)poly-trimethylamine s] [6,6',6",6'",6"",6'"",6"""-Heptadeoxy-β-cyclodextrin, tetradecakis(H-sulfate), tetradecasalt with trimethylamine] |  |  | 036 Activity in wells (shunt pathway): 4 wells; 035 Activity in wells [2]: 2 wells; 026 Activity in wells (activated human C1): 7 wells
